Among the data in patent US5710274A, “N-aminoalkyldibenzofurancarboxamides; new dopamine receptor subtype specific ligands” (Neurogen Corporation, priority 1996, dated 1998) are Ki values, retold here.

One experiment addresses T1, D2 receptors (Chlorocebus aethiops, UniProt P52702).
T1 construct: expressed in transfected cells; host or cells: COS cells
Kind of experiment: D2 receptor binding, displacement of 3H-YM 09151-2. Further details: species or system African Green monkey. The following applies: recombinant receptors in COS cell pellets; 0.5 nM 3H-YM 09151-2; 48° C; pH 7.4. How it is done: (§1) Pellets of COS cells containing recombinantly produced D2 or D3 receptors from African Green monkey were used for the assays. The sample is homogenized in 100 volumes (w/vol) of 0.05M Tris HCl buffer at 4° C. and pH 7.4. The sample is then centrifuged at 30,000×g and resuspended and rehomogenized. The sample is then centrifuged as described and the final tissue sample is frozen until use. The tissue is resuspended 1:20 (wt/vol) in 0.05M Tris HCl buffer containing 100 mM NaCl.
(§2) Incubations are carried out at 48° C. and contain 0.4 ml of tissue sample, 0.5 nM ^3 H-YM 09151-2 and the compound of interest in a total incubation of 1.0 ml. Nonspecific binding is defined as that binding found in the presence of […] spiperone; without further additions, nonspecific binding is less than 20% of total binding. The binding characteristics of representative compounds of the invention for D2 and D3 receptor subtypes are shown in Table 2 for rat striatal homogenates.
(In general: Displacement assays read how much labelled ligand stays bound in the presence of the test substance.)

For the next experiment, the target named is T2, D3 receptors (Chlorocebus aethiops, UniProt P52703).
T2 construct: expressed in transfected cells; host or cells: COS cells
T2 sequence (P52703 whole entry): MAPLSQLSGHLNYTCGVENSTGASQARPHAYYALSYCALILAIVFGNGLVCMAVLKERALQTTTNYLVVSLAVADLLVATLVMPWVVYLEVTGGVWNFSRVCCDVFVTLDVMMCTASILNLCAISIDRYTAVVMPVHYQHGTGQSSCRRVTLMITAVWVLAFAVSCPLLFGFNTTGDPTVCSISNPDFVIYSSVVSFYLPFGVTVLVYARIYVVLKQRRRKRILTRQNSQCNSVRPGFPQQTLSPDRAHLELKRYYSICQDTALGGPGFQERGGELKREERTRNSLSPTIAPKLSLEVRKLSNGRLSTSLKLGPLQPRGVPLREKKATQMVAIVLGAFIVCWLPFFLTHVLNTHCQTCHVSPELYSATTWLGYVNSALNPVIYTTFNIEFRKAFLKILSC
In words: D3 receptor binding, displacement of 3H-YM 09151-2. Further details: species or system African Green monkey. The following applies: recombinant receptors in COS cell pellets; 0.5 nM 3H-YM 09151-2; 48° C; pH 7.4. As for the experimental part: as §1, §2

Molecules are shown by their SMILES. Structures can show the parent of a compound that is named as a salt.

T1 sequence (P52702 whole entry): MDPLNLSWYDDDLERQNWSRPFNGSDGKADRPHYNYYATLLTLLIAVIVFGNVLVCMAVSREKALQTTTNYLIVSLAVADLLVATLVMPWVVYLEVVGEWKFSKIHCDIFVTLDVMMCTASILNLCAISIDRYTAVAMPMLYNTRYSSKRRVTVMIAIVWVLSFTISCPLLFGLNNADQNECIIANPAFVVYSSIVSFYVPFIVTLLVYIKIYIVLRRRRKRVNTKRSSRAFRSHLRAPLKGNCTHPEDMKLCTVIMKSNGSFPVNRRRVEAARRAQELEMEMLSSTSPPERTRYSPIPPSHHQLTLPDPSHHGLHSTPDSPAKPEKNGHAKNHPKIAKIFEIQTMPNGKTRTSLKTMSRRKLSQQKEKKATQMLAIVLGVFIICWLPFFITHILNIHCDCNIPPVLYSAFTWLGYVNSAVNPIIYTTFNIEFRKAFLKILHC

As for `O=C(NCCCCN1CCN(c2cccc(Cl)c2Cl)CC1)c1ccc2oc3ccccc3c2c1` [Compound 1, N-(1-{4-[4-(2,3-Dichlorophenyl)piperazin-1-yl]}butyl)-2-dibenzofurancarboxamide hydrochloride], the inhibition constant (Ki) (in general, the equilibrium dissociation constant of an inhibitor or competing ligand from its target) at D2 receptors worked out at 157 nM; on D3 receptors, 1 nM.
The corresponding values for `O=C(NCCCCN1CCN(c2cccc3ccccc23)CC1)c1ccc2oc3ccccc3c2c1` [Compound 2, N-(1-{4-[4-(1-Naphthyl)piperazin-1-yl]}butyl)-2-dibenzofurancarboxamide hydrochloride] are 201 nM and 1.3 nM.
